Results taken from the supplement of paper PMC13380429.

Assays:
Conditions in all cases: 72 h
Calu-3 [1] = assay: relative viability EC50 (midpoint between 100% and the lowest measured viability); higher = less toxic
Vero E6 [2] = assay: as above
HepG2 [3] = assay: as above
U2OS [4] = assay: as above
Caco-2 [5] = assay: as above
Calu-3 [6] = assay: drug sensitivity score (DSS) for viability; higher = more toxic; extreme values may be limits of the assay
Vero E6 [7] = assay: as above
HepG2 [8] = assay: as above
U2OS [9] = assay: as above
Caco-2 [10] = assay: as above
Calu-3 [11] = assay: cell viability relative to DMSO; higher = less toxic
Vero E6 [12] = assay: as above
HepG2 [13] = assay: as above
U2OS [14] = assay: as above
Caco-2 [15] = assay: as above

SMILES | relative viability EC50 (Calu-3 [1]) | relative viability EC50 (Vero E6 [2]) | relative viability EC50 (HepG2 [3]) | relative viability EC50 (U2OS [4]) | relative viability EC50 (Caco-2 [5]) | drug sensitivity score (Calu-3 [6]) | drug sensitivity score (Vero E6 [7]) | drug sensitivity score (HepG2 [8]) | drug sensitivity score (U2OS [9]) | drug sensitivity score (Caco-2 [10]) | cell viability (Calu-3 [11]; 1 nM) | cell viability (Calu-3 [11]; 10 nM) | cell viability (Calu-3 [11]; 100 nM) | cell viability (Calu-3 [11]; 1000 nM) | cell viability (Calu-3 [11]; 10000 nM) | cell viability (Vero E6 [12]; 1 nM) | cell viability (Vero E6 [12]; 10 nM) | cell viability (Vero E6 [12]; 100 nM) | cell viability (Vero E6 [12]; 1000 nM) | cell viability (Vero E6 [12]; 10000 nM) | cell viability (HepG2 [13]; 1 nM) | cell viability (HepG2 [13]; 10 nM) | cell viability (HepG2 [13]; 100 nM) | cell viability (HepG2 [13]; 1000 nM) | cell viability (HepG2 [13]; 10000 nM) | cell viability (U2OS [14]; 1 nM) | cell viability (U2OS [14]; 10 nM) | cell viability (U2OS [14]; 100 nM) | cell viability (U2OS [14]; 1000 nM) | cell viability (U2OS [14]; 10000 nM) | cell viability (Caco-2 [15]; 1 nM) | cell viability (Caco-2 [15]; 10 nM) | cell viability (Caco-2 [15]; 100 nM) | cell viability (Caco-2 [15]; 1000 nM) | cell viability (Caco-2 [15]; 10000 nM)
COc1cc(N2CCC(N)CC2)ccc1Nc1ncc(Cl)c(-c2c[nH]c3ccccc23)n1 [AZD3463] | 1.73 µM | 2.08 µM | 0.402 µM | 1.39 µM | 0.923 µM | 8 | 7.4 | 13.6 | 9.6 | 8 | 97.2% | 88.9% | 95.1% | 81.8% | 9.4% | 104% | 100% | 102% | 87.1% | 4.5% | 102% | 102% | 78.1% | 41.6% | 12.7% | 93.5% | 101% | 95.1% | 69.2% | 2.6% | 103% | 98.2% | 99.6% | 64.3% | 34.9%
CCC1(C)CC(=O)NC(=O)C1 [bemegride] | > 10 µM | > 10 µM | > 10 µM | > 10 µM | > 10 µM | 0 | 0 | 0 | 0 | 0 | 92.2% | 114% | 101% | 105% | 98.1% | 98.2% | 102% | 94.6% | 99.1% | 112% | 102% | 101% | 108% | 90.8% | 112% | 100% | 96.6% | 98.6% | 99.8% | 102% | 102% | 90.1% | 90.8% | 94.8% | 98.8%
CCCCCCCC/C=C\CCCCCCCC(=O)NCCO [oleoylethanolamide] | > 10 µM | > 10 µM | > 10 µM | > 10 µM | > 10 µM | 0 | 0 | 0 | 0 | 0 | 97.2% | 101% | 97.1% | 102% | 101% | 106% | 102% | 105% | 96.4% | 103% | 92.1% | 96.1% | 103% | 90.2% | 104% | 99.8% | 100% | 97% | 103% | 103% | 86.2% | 99.2% | 92.3% | 104% | 106%
O=c1c(-c2ccc(O)cc2)coc2cc(O)cc(O)c12 [genistein] | > 10 µM | > 10 µM | > 10 µM | > 10 µM | > 10 µM | 0.3 | 0 | 0.3 | 0 | 0 | 96.4% | 91.5% | 98.1% | 103% | 82.9% | 102% | 108% | 108% | 96.1% | 97.2% | 95.2% | 89.9% | 95.9% | 102% | 82.6% | 93.9% | 98.8% | 87.1% | 87% | 95.4% | 102% | 96.6% | 105% | 97% | 90.3%
CC[C@@H]1C(=O)OC[C@@H]1Cc1cncn1C [pilocarpine] | > 10 µM | > 10 µM | > 10 µM | > 10 µM | > 10 µM | 0 | 0 | 0 | 0 | 0 | 109% | 102% | 103% | 98.4% | 97.9% | 106% | 104% | 99.3% | 106% | 103% | 97.7% | 95.3% | 105% | 104% | 105% | 106% | 101% | 101% | 99.2% | 100% | 100% | 98.1% | 88.7% | 91.3% | 103%
Cc1cccc(Oc2nc3c(C)cccn3c(=O)c2/C=C(\C#N)c2nc3ccccc3s2)c1 | > 10 µM | > 10 µM | > 10 µM | > 10 µM | > 10 µM | 0 | 0 | 0 | 0 | 0 | 97% | 94.1% | 98.6% | 102% | 112% | 103% | 95.5% | 99.4% | 91.4% | 106% | 100% | 90.2% | 101% | 94.6% | 100% | 95.2% | 99.1% | 96% | 102% | 106% | 93.1% | 98.3% | 98.3% | 94% | 98.6%
O=C(Oc1ccc([N+](=O)[O-])cc1)N1CCN(Cc2cccc(Oc3ccccc3)c2)CC1 [JZL-195] | > 10 µM | > 10 µM | > 10 µM | > 10 µM | > 10 µM | 0 | 0 | 0.5 | 0 | 0 | 102% | 104% | 91.5% | 103% | 93.5% | 97.3% | 103% | 104% | 92.9% | 99.7% | 91.8% | 99.5% | 103% | 99.2% | 82.4% | 98.6% | 100% | 97.4% | 100% | 94.6% | 107% | 94.7% | 86.7% | 93.7% | 95.4%
CC(=O)NCCc1c(Cc2ccccc2)[nH]c2ccccc12 [luzindole] | > 10 µM | > 10 µM | > 10 µM | > 10 µM | > 10 µM | 0 | 0 | 0 | 0 | 0 | 98.6% | 102% | 105% | 104% | 96.2% | 95.9% | 99% | 95.1% | 94.6% | 97.4% | 103% | 99.9% | 104% | 95.5% | 110% | 102% | 103% | 100% | 104% | 96.9% | 97.4% | 105% | 106% | 103% | 102%
O=C(O)c1ccc(N[C@@H]2O[C@H](CO)[C@@H](O)[C@H](O)[C@@H]2O)cc1 [K-MAP] | > 10 µM | > 10 µM | > 10 µM | > 10 µM | > 10 µM | 0 | 0 | 0 | 0 | 0 | 117% | 99.5% | 105% | 102% | 99% | 94.7% | 96.7% | 93.2% | 98.8% | 109% | 90.8% | 98.1% | 95.4% | 97.1% | 97.5% | 99.7% | 95.4% | 100% | 97.7% | 100% | 92.7% | 93.3% | 89.5% | 91% | 95.8%
CC(=O)N1CCN(C)CC1 [1-acetyl-4-methylpiperazine] | > 10 µM | > 10 µM | > 10 µM | > 10 µM | > 10 µM | 0 | 0 | 0 | 0 | 0 | 89.8% | 86.6% | 95% | 100% | 93.8% | 105% | 104% | 104% | 98.2% | 95.9% | 104% | 111% | 101% | 99.5% | 100% | 103% | 99.1% | 96.2% | 99.8% | 102% | 100% | 93.6% | 101% | 95.7% | 97.3%
CCS(=O)(=O)N(C)[C@@H]1c2cc(C#N)ccc2OC(C)(C)[C@H]1O.CCS(=O)(=O)N(C)[C@H]1c2cc(C#N)ccc2OC(C)(C)[C@@H]1O (racemic) [chromanol-(+/-)] | > 10 µM | > 10 µM | > 10 µM | > 10 µM | > 10 µM | 0 | 0 | 0 | 0 | 0 | 103% | 99.8% | 92.5% | 102% | 97.5% | 101% | 102% | 101% | 103% | 95.6% | 106% | 105% | 100% | 96.7% | 94.6% | 100% | 96.9% | 102% | 96.2% | 102% | 90.9% | 89.9% | 100% | 106% | 93.5%
COc1ccc(-c2nc(-c3ccc(-c4cccc(Cl)c4)o3)[nH]c2-c2ccc(OC)cc2)cc1 [neurodazine] | > 10 µM | > 10 µM | > 10 µM | > 10 µM | > 10 µM | 0.6 | 0 | 0.3 | 0 | 0.2 | 91.4% | 96% | 97.2% | 79.6% | 89.6% | 109% | 103% | 98.4% | 102% | 96.6% | 112% | 99.5% | 96.3% | 98.2% | 86.2% | 100% | 99% | 105% | 96.3% | 96.1% | 106% | 94.9% | 109% | 103% | 84.4%
COc1cc(N)c(Cl)cc1C(=O)OCCN1CCCCC1 | > 10 µM | > 10 µM | > 10 µM | > 10 µM | > 10 µM | 0 | 0 | 0 | 0 | 0 | 93.8% | 108% | 102% | 103% | 102% | 96.3% | 97.3% | 98.7% | 99.3% | 99.5% | 112% | 96.9% | 106% | 94.9% | 103% | 93.9% | 99% | 95.5% | 100% | 108% | 88.3% | 97.6% | 86% | 100% | 110%
CN(C)CCC(c1ccc(Br)cc1)c1ccccn1 (stereo not given) [brompheniramine] | > 10 µM | > 10 µM | > 10 µM | > 10 µM | > 10 µM | 0 | 0 | 0 | 0 | 0 | 94.9% | 99.5% | 96.6% | 94.5% | 88.9% | 98.8% | 102% | 100% | 105% | 94.9% | 99.3% | 98.5% | 96.4% | 93.7% | 88.1% | 106% | 101% | 102% | 97.6% | 102% | 92.3% | 75.3% | 96.6% | 101% | 96.2%
